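A five-concentration, 48-hour dose response in 96-well plates underlies each endpoint, interpolated linearly between surrounding concentrations. Definition used: TGI = concentration required for complete inhibition of growth.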 Where only a bound is given, the exact number is not on record here.

Holding throughout (experiment): inhibition of tumour cell growth, NCI panel, 48 h
Test [1] deals with OVCAR-4 ovarian.
Test [2] has as its system SNB-75 CNS.
Test [3] relates to COLO 205 colon.
For test [4], the system named is CAKI-1 renal.
Test [5] relates to UACC-257 melanoma.
For test [6], the system named is TK-10 renal.
Test [7] has as its system SF-295 CNS.
Test [8] has as its system SK-OV-3 ovarian.
Test [9] concerns OVCAR-8 ovarian.
Test [10] relates to NCI-H460 lung.

For the molecule `O=C(N/N=C(/COc1ccc(Cl)cc1)N=Cc1cccnc1)c1ccncc1`, the TGI in test [1], in test [2], in test [3], in test [4], in test [5] and in test [6] was greater than 100 µM each time. Moreover, the TGI in [7], in test [8], in test [9] and in [10] was greater than 100 µM throughout.

As for `C#CCn1ncc2c(SC)ncnc21`, the TGI is greater than 100 µM in [1]; 97.8 µM in test [2]; greater than 100 µM in test [3]; greater than 100 µM in [4]; greater than 100 µM in test [5]; greater than 100 µM in [6]. Besides, the TGI in [7], in test [8], in test [9] and in [10] was greater than 100 µM throughout.

Consider `OC1(c2ccc(Cl)cc2)c2c(ccc3c2OCO3)C2=NCCN21` (stereo unspecified), for which the TGI in test [1] was greater than 100 µM; in [2] it was 59 µM; in test [3], 33 µM; in [4], greater than 100 µM; in test [5], 37.2 µM; in test [6], 45.7 µM. Further, the TGI in test [7], in test [8], in [9] and in [10] was greater than 100 µM in each case.

`Cn1c(-c2cccs2)cc(-c2ccccc2)c1-c1cccs1`: the TGI in test [1], in test [2], in [3], in [4], in test [5] and in test [6] was greater than 100 µM throughout. In addition, the TGI in [7], in [8], in [9] and in test [10] was greater than 100 µM each time.

Regarding `O=C1N(c2ccccc2)C2(c3ccccc3)CC3CCCC13S2` (stereo unspecified), the TGI in test [1] was greater than 100 µM; in test [3], greater than 100 µM; in [4] it was greater than 100 µM; in test [5], 51.1 µM; in [6] it was 1.84 µM; in [7] it was greater than 100 µM. Also, the TGI in test [8] and in [9] was greater than 100 µM in each case.

As to `O=C(C=P(c1ccccc1)(c1ccccc1)c1ccccc1)c1cccc(-c2cccc([N+](=O)[O-])c2)c1`, the TGI was 15.5 µM in test [1]; 7.62 µM in test [2]; 2.91 µM in test [3]; 6.26 µM in test [4]; greater than 100 µM in [6]; 35.3 µM in test [7]. In addition, the TGI in test [8] was 51.2 µM; in test [9], greater than 100 µM; in test [10], greater than 100 µM.

Regarding `COc1ccc2c(c1)CCN=C2Cc1cc(OC)c(OC)cc1CCCl`, the TGI in [1], in test [2], in test [3], in test [4], in test [5] and in [6] was greater than 100 µM throughout. The TGI in [7], in test [8], in test [9] and in test [10] was greater than 100 µM each time.

`O=Cc1cc([N+](=O)[O-])no1`: the TGI in test [1] was 35.8 µM; in test [2], greater than 100 µM; in test [3] it was greater than 100 µM; in test [4], greater than 100 µM; in test [5], 90.7 µM; in test [6], greater than 100 µM. Moreover, the TGI in test [7], in test [8], in test [9] and in [10] was greater than 100 µM each time.

In the case of `Cc1cc2c(cc1Cl)SC(c1ccccc1)C(=O)NS2(=O)=O` (stereo unspecified), the TGI in test [1] was greater than 100 µM; in [2], 87 µM; in [4], greater than 100 µM; in test [5], 88.5 µM; in [6], greater than 100 µM; in test [7], 95.6 µM. The TGI in test [8] was greater than 100 µM; in test [9] it was greater than 100 µM; in test [10] it was 86.1 µM.

In the case of `N/C(=N\S(=O)(=O)c1cccc2nsnc12)Nc1ccc(Cl)cc1`, the TGI in test [1] was greater than 100 µM; in [2] it was greater than 100 µM; in test [5], 32.5 µM; in test [6] it was 62.8 µM; in test [7], greater than 100 µM; in test [8] it was greater than 100 µM. In addition, the TGI in test [9] is greater than 100 µM; in [10], 67 µM.

Regarding `COC(=O)c1cc2c3c(cc(N(C)C)c2[nH]1)N(C(=O)c1cc2cc(OC)c(OC)c(OC)c2[nH]1)CC3CCl` (stereo unspecified), the TGI in [1] was 0.00605 µM; in test [2], 0.00422 µM; in test [3], 0.0131 µM; in test [4], less than 0.0025 µM; in test [7], 0.226 µM; in test [8], 0.101 µM. The molecule further registered a TGI in test [10] of 0.323 µM.

Take `CCOC(=O)C[C@@H]1C2(C=C[C@@]13CO3)OCC(C)(C)CO2`: the TGI in test [1] was 97.4 µM; in [2] it was greater than 100 µM; in test [3], greater than 100 µM; in [4], greater than 100 µM; in test [5], greater than 100 µM; in test [6], greater than 100 µM. For the same molecule, the TGI in [7], in [8], in test [9] and in test [10] was greater than 100 µM in each case.

For the molecule `Cc1ccc(NP(=O)(Oc2ccccc2)N(CCCl)CCCl)cc1` (stereo unspecified), the TGI in [1], in test [2], in test [3], in test [4], in test [5] and in test [6] was greater than 100 µM each time. Besides, the TGI in test [7], in [8] and in [9] was greater than 100 µM throughout.

With `CS(=O)(=O)OC1CN2CCC1CC2` (stereo unspecified), the TGI in test [1], in [2], in [3], in test [4], in test [5] and in [6] was greater than 100 µM in each case. The TGI in test [7], in test [8], in test [9] and in [10] was greater than 100 µM throughout.

On to `O=C(C[C@H](NC(=O)OCc1ccccc1)C(=O)NC1Cc2ccccc2OC1=O)OCc1ccccc1` (stereo partly specified), for which the TGI in test [2], in test [3], in test [4], in [8], in [9] and in test [10] was greater than 100 µM throughout.

For the origin of these results see PubChem BioAssay (NCI).
